Converted amounts (≈) assume the structure as drawn. Residues, ends and D or L forms follow the SMILES beside them. No end group written: not given here. *: point of attachment. Myristoyl = CCCCCCCCCCCCCC(=O)*; Lauroyl = CCCCCCCCCCCC(=O)*; Decanoyl = CCCCCCCCCC(=O)*; Octanoyl = CCCCCCCC(=O)*; Hexanoyl = CCCCCC(=O)*

The values that follow come from publication PMC9082781 (ACS infectious diseases, 2021).

In the first assay the test system is E. coli ATCC25922.
Turning to “KRIVQRIKDFLR-NH2 [KR12, reference compound]”, the “MIC EC” value was greater than 50 µM.

For the next assay, the system named is P. aeruginosa PAO1. It is filed as cell-based, Pseudomonas aeruginosa.
On to `CCCCCCCCCC(=O)N[C@@H](CCCCN)C(=O)N[C@@H](CCCNC(=N)N)C(=O)N[C@H](C(=O)N[C@@H](Cc1c[nH]c2ccccc12)C(=O)N[C@@H](CCC(N)=O)C(=O)N[C@@H](CCCNC(=N)N)C(=O)N[C@H](C(=O)N[C@@H](CCCCN)C(=O)N[C@@H](CC(=O)O)C(=O)N[C@@H](Cc1ccccc1)C(N)=O)[C@@H](C)CC)[C@@H](C)CC` [Peptide C10-KR10] (Decanoyl-KRIWQRIKDF-NH2), for which the “MIC PA” value came out at 6.2 µM (≈ 9.57 µg/mL).

Regarding `CCCCCCCCCCCC(=O)N[C@@H](CCCCN)C(=O)N[C@@H](CCCNC(=N)N)C(=O)N[C@H](C(=O)N[C@@H](Cc1c[nH]c2ccccc12)C(=O)N[C@@H](CCC(N)=O)C(=O)N[C@@H](CCCNC(=N)N)C(=O)N[C@H](C(=O)N[C@@H](CCCCN)C(=O)N[C@@H](CC(=O)O)C(=O)N[C@@H](Cc1ccccc1)C(N)=O)[C@@H](C)CC)[C@@H](C)CC` [Peptide C12-KR10] (Lauroyl-KRIWQRIKDF-NH2), the “MIC PA” value amounted to 3.1 µM (≈ 4.87 µg/mL).

Another assay deals with Klebsiella pneumonia ATCC 13883. It is filed as cell-based, Klebsiella pneumoniae.
“KRIVQRIKDFLR-NH2 [KR12, reference compound]”: the “MIC KP” value was greater than 50 µM.

Consider `CCCCCCCCCCCC(=O)N[C@@H](CCCCN)C(=O)N[C@@H](CCCNC(=N)N)C(=O)N[C@H](C(=O)N[C@@H](Cc1c[nH]c2ccccc12)C(=O)N[C@@H](CCC(N)=O)C(=O)N[C@@H](CCCNC(=N)N)C(=O)N[C@H](C(=O)N[C@@H](CCCCN)C(N)=O)[C@@H](C)CC)[C@@H](C)CC` [Peptide C12-KR8] (Lauroyl-KRIWQRIK-NH2), for which the “MIC KP” value was greater than 50 µM.

`CCCCCCCCCC(=O)N[C@@H](CCCCN)C(=O)N[C@@H](CCCNC(=N)N)C(=O)N[C@H](C(=O)N[C@@H](Cc1c[nH]c2ccccc12)C(=O)N[C@@H](CCC(N)=O)C(=O)N[C@@H](CCCNC(=N)N)C(=O)N[C@H](C(=O)N[C@@H](CCCCN)C(=O)N[C@@H](CC(=O)O)C(=O)N[C@@H](Cc1ccccc1)C(N)=O)[C@@H](C)CC)[C@@H](C)CC` [Peptide C10-KR10] (Decanoyl-KRIWQRIKDF-NH2): the “MIC KP” value stood at 6.2 µM (≈ 9.57 µg/mL).

On to `CCCCCC(=O)N[C@@H](CCCCN)C(=O)N[C@@H](CCCNC(=N)N)C(=O)N[C@H](C(=O)N[C@@H](Cc1c[nH]c2ccccc12)C(N)=O)[C@@H](C)CC` [Peptide C6-KR4] (Hexanoyl-KRIW-NH2; C-terminus assumed), for which the “MIC KP” value is greater than 50 µM.

With `CCCCCCCCCCCC(=O)N[C@@H](CCCCN)C(=O)N[C@@H](CCCNC(=N)N)C(=O)N[C@H](C(=O)N[C@@H](Cc1c[nH]c2ccccc12)C(N)=O)[C@@H](C)CC` [Peptide C12-KR4] (Lauroyl-KRIW-NH2; C-terminus assumed), the “MIC KP” value was greater than 50 µM.

As to `CCCCCCCCCCCCCC(=O)N[C@@H](CCCCN)C(=O)N[C@@H](CCCNC(=N)N)C(=O)N[C@H](C(=O)N[C@@H](Cc1c[nH]c2ccccc12)C(N)=O)[C@@H](C)CC` [Peptide C14-KR4] (Myristoyl-KRIW-NH2; C-terminus assumed), the “MIC KP” value turned out to be 12.5 µM (≈ 10.1 µg/mL).

Regarding `CCCCCCCCCCCCCC(=O)N[C@@H](CCCCN)C(=O)N[C@@H](CCCNC(=N)N)C(=O)N[C@H](C(=O)N[C@@H](Cc1c[nH]c2ccccc12)C(=O)N[C@@H](CCC(N)=O)C(=O)N[C@@H](CCCNC(=N)N)C(=O)N[C@H](C(=O)N[C@@H](CCCCN)C(N)=O)[C@@H](C)CC)[C@@H](C)CC` [Peptide C14-KR8] (Myristoyl-KRIWQRIK-NH2), the “MIC KP” value is greater than 50 µM.

Take `CCCCCCCCCC(=O)N[C@@H](CCCCN)C(=O)N[C@@H](CCCNC(=N)N)C(=O)N[C@H](C(=O)N[C@@H](Cc1c[nH]c2ccccc12)C(N)=O)[C@@H](C)CC` [Peptide C10-KR4] (Decanoyl-KRIW-NH2; C-terminus assumed): the “MIC KP” value is greater than 50 µM.

On to `CCCCCCCC(=O)N[C@@H](CCCCN)C(=O)N[C@@H](CCCNC(=N)N)C(=O)N[C@H](C(=O)N[C@@H](Cc1c[nH]c2ccccc12)C(N)=O)[C@@H](C)CC` [Peptide C8-KR4] (Octanoyl-KRIW-NH2; C-terminus assumed), for which the “MIC KP” value was greater than 50 µM.

`CCCCCCCC(=O)N[C@@H](CCCCN)C(=O)N[C@@H](CCCNC(=N)N)C(=O)N[C@H](C(=O)N[C@@H](Cc1c[nH]c2ccccc12)C(=O)N[C@@H](CCC(N)=O)C(=O)N[C@@H](CCCNC(=N)N)C(=O)N[C@H](C(=O)N[C@@H](CCCCN)C(N)=O)[C@@H](C)CC)[C@@H](C)CC` [Peptide C8-KR8] (Octanoyl-KRIWQRIK-NH2): the “MIC KP” value is greater than 50 µM.

For the compound `CCCCCCCCCC(=O)N[C@@H](CCCCN)C(=O)N[C@@H](CCCNC(=N)N)C(=O)N[C@H](C(=O)N[C@@H](Cc1c[nH]c2ccccc12)C(=O)N[C@@H](CCC(N)=O)C(=O)N[C@@H](CCCNC(=N)N)C(=O)N[C@H](C(=O)N[C@@H](CCCCN)C(=O)N[C@@H](CC(=O)O)C(=O)N[C@@H](Cc1ccccc1)C(=O)N[C@@H](CC(C)C)C(=O)N[C@@H](CCCNC(=N)N)C(N)=O)[C@@H](C)CC)[C@@H](C)CC` [Peptide C10-KR12] (Decanoyl-KRIWQRIKDFLR-NH2), the “MIC KP” value was 6.2 to 12.5 µM.

As to `CCCCCCCCCCCC(=O)N[C@@H](CCCCN)C(=O)N[C@@H](CCCNC(=N)N)C(=O)N[C@H](C(=O)N[C@@H](Cc1c[nH]c2ccccc12)C(=O)N[C@@H](CCC(N)=O)C(=O)N[C@@H](CCCNC(=N)N)C(N)=O)[C@@H](C)CC` [Peptide C12-KR6] (Lauroyl-KRIWQR-NH2; C-terminus assumed), the “MIC KP” value is greater than 50 µM.

For the compound `CCCCCCCCCCCCCC(=O)N[C@@H](CCCCN)C(=O)N[C@@H](CCCNC(=N)N)C(=O)N[C@H](C(=O)N[C@@H](Cc1c[nH]c2ccccc12)C(=O)N[C@@H](CCC(N)=O)C(=O)N[C@@H](CCCNC(=N)N)C(N)=O)[C@@H](C)CC` [Peptide C14-KR6] (Myristoyl-KRIWQR-NH2; C-terminus assumed), the “MIC KP” value was greater than 50 µM.

With `CCCCCCCCCC(=O)N[C@@H](CCCCN)C(=O)N[C@@H](CCCNC(=N)N)C(=O)N[C@H](C(=O)N[C@@H](Cc1c[nH]c2ccccc12)C(=O)N[C@@H](CCC(N)=O)C(=O)N[C@@H](CCCNC(=N)N)C(N)=O)[C@@H](C)CC` [Peptide C10-KR6] (Decanoyl-KRIWQR-NH2; C-terminus assumed), the “MIC KP” value is greater than 50 µM.

Regarding `CCCCCCCCCCCCCC(=O)N[C@@H](CCCCN)C(=O)N[C@@H](CCCNC(=N)N)C(=O)N[C@H](C(=O)N[C@@H](Cc1c[nH]c2ccccc12)C(=O)N[C@@H](CCC(N)=O)C(=O)N[C@@H](CCCNC(=N)N)C(=O)N[C@H](C(=O)N[C@@H](CCCCN)C(=O)N[C@@H](CC(=O)O)C(=O)N[C@@H](Cc1ccccc1)C(N)=O)[C@@H](C)CC)[C@@H](C)CC` [Peptide C14-KR10] (Myristoyl-KRIWQRIKDF-NH2), the “MIC KP” value was found to be 6.2 µM (≈ 9.91 µg/mL).

`CCCCCC(=O)N[C@@H](CCCCN)C(=O)N[C@@H](CCCNC(=N)N)C(=O)N[C@H](C(=O)N[C@@H](Cc1c[nH]c2ccccc12)C(=O)N[C@@H](CCC(N)=O)C(=O)N[C@@H](CCCNC(=N)N)C(=O)N[C@H](C(=O)N[C@@H](CCCCN)C(N)=O)[C@@H](C)CC)[C@@H](C)CC` [Peptide C6-KR8] (Hexanoyl-KRIWQRIK-NH2): the “MIC KP” value was greater than 50 µM.

`CCCCCC(=O)N[C@@H](CCCCN)C(=O)N[C@@H](CCCNC(=N)N)C(=O)N[C@H](C(=O)N[C@@H](Cc1c[nH]c2ccccc12)C(=O)N[C@@H](CCC(N)=O)C(=O)N[C@@H](CCCNC(=N)N)C(=O)N[C@H](C(=O)N[C@@H](CCCCN)C(=O)N[C@@H](CC(=O)O)C(=O)N[C@@H](Cc1ccccc1)C(N)=O)[C@@H](C)CC)[C@@H](C)CC` [Peptide C6-KR10] (Hexanoyl-KRIWQRIKDF-NH2): the “MIC KP” value was greater than 50 µM.

Regarding `CCCCCCCCCCCC(=O)N[C@@H](CCCCN)C(=O)N[C@@H](CCCNC(=N)N)C(=O)N[C@H](C(=O)N[C@@H](Cc1c[nH]c2ccccc12)C(=O)N[C@@H](CCC(N)=O)C(=O)N[C@@H](CCCNC(=N)N)C(=O)N[C@H](C(=O)N[C@@H](CCCCN)C(=O)N[C@@H](CC(=O)O)C(=O)N[C@@H](Cc1ccccc1)C(N)=O)[C@@H](C)CC)[C@@H](C)CC` [Peptide C12-KR10] (Lauroyl-KRIWQRIKDF-NH2), the “MIC KP” value is 3.1 µM (≈ 4.87 µg/mL).

For the compound `CCCCCCCC(=O)N[C@@H](CCCCN)C(=O)N[C@@H](CCCNC(=N)N)C(=O)N[C@H](C(=O)N[C@@H](Cc1c[nH]c2ccccc12)C(=O)N[C@@H](CCC(N)=O)C(=O)N[C@@H](CCCNC(=N)N)C(N)=O)[C@@H](C)CC` [Peptide C8-KR6] (Octanoyl-KRIWQR-NH2; C-terminus assumed), the “MIC KP” value was greater than 50 µM.

In the case of `CCCCCCCCCCCC(=O)N[C@@H](CCCCN)C(=O)N[C@@H](CCCNC(=N)N)C(=O)N[C@H](C(=O)N[C@@H](Cc1c[nH]c2ccccc12)C(=O)N[C@@H](CCC(N)=O)C(=O)N[C@@H](CCCNC(=N)N)C(=O)N[C@H](C(=O)N[C@@H](CCCCN)C(=O)N[C@@H](CC(=O)O)C(=O)N[C@@H](Cc1ccccc1)C(=O)N[C@@H](CC(C)C)C(=O)N[C@@H](CCCNC(=N)N)C(N)=O)[C@@H](C)CC)[C@@H](C)CC` [Peptide C12-KR12] (Lauroyl-KRIWQRIKDFLR-NH2), the “MIC KP” value stood at 12.5 µM (≈ 23 µg/mL).

Regarding `CCCCCC(=O)N[C@@H](CCCCN)C(=O)N[C@@H](CCCNC(=N)N)C(=O)N[C@H](C(=O)N[C@@H](Cc1c[nH]c2ccccc12)C(=O)N[C@@H](CCC(N)=O)C(=O)N[C@@H](CCCNC(=N)N)C(=O)N[C@H](C(=O)N[C@@H](CCCCN)C(=O)N[C@@H](CC(=O)O)C(=O)N[C@@H](Cc1ccccc1)C(=O)N[C@@H](CC(C)C)C(=O)N[C@@H](CCCNC(=N)N)C(N)=O)[C@@H](C)CC)[C@@H](C)CC` [Peptide C6-KR12] (Hexanoyl-KRIWQRIKDFLR-NH2), the “MIC KP” value came out at 6.2 µM (≈ 10.9 µg/mL).

With `CCCCCC(=O)N[C@@H](CCCCN)C(=O)N[C@@H](CCCNC(=N)N)C(=O)N[C@H](C(=O)N[C@@H](Cc1c[nH]c2ccccc12)C(=O)N[C@@H](CCC(N)=O)C(=O)N[C@@H](CCCNC(=N)N)C(N)=O)[C@@H](C)CC` [Peptide C6-KR6] (Hexanoyl-KRIWQR-NH2; C-terminus assumed), the “MIC KP” value was greater than 50 µM.

For `CCCCCCCC(=O)N[C@@H](CCCCN)C(=O)N[C@@H](CCCNC(=N)N)C(=O)N[C@H](C(=O)N[C@@H](Cc1c[nH]c2ccccc12)C(=O)N[C@@H](CCC(N)=O)C(=O)N[C@@H](CCCNC(=N)N)C(=O)N[C@H](C(=O)N[C@@H](CCCCN)C(=O)N[C@@H](CC(=O)O)C(=O)N[C@@H](Cc1ccccc1)C(=O)N[C@@H](CC(C)C)C(=O)N[C@@H](CCCNC(=N)N)C(N)=O)[C@@H](C)CC)[C@@H](C)CC` [Peptide C8-KR12] (Octanoyl-KRIWQRIKDFLR-NH2), the “MIC KP” value is less than 6.2 µM.
